Test results: patent publication US6340677B1, “Method of evaluation of skin conditioning-ameliorating agents and method of producing compositions for topical application to skin” (Pola Chemical Industries, Inc., priority 1997, dated 2002)

Tested on: mouse photo-aging model
Assay: degree of order of dermis collagen fiber bundle in the mouse photo-aging model (score 0 to 3 from electron microphotographs)
Assay type: in vivo, hairless mice (Skh: HR-1)
Conditions: 0.05% solution in ethanol
Procedure: Five groups of hairless mice (Skh: HR-1,female, 8-week-old), each group comprising six mice, were prepared. A part of skin and replica of skin surface morphology were excised from each mouse of one group of them when they were 8 weeks old without the following ultraviolet light irradiation, namely in-the state of before the ultraviolet light irradiation. About the remaining four groups, each mouse was irradiated with ultraviolet light B (Toshiba SE lamp, 60 mJ/cm^2) once per day for 5 days a week and fed up. The irradiation of the ultraviolet light to one group among the four groups described-above was stopped after one week of the initiation of the irradiation and at this time a part of skin and replica of skin surface morphology were excised from each mouse of the group. As the same manner, the irradiation of the ultraviolet light to the another group and to the further another group were stopped after two and five weeks of the initiation of the irradiation and then a part of skin and replica of skin surface morphology were excised from each mouse of the groups respectively. The irradiation of the ultraviolet light to the last group was continued to 10 weeks after initiation of the irradiation to prepare the mouse photo-aging models. Thus the total amount of the ultraviolet light irradiated to the mouse photo-aging models was 3J/cm^2. A part of skin and replica of skin surface morphology were also excised from each mouse photo-aging model obtained above. […] Each of the solution was given in an amount of 0.05 ml once a day for consecutive 8 weeks. After completion of the application, a part of the skin was excised from each mouse to take photographs of its surface morphology under scanning electron microscope. […] Evaluation was carried out using the value calculated by dividing the degree of order of the dermis collagen fiber bundle measured by the above method after the application by that before the application.

Compound: C[C@@H]1C[C@H]2[C@@H]3CCC4=CC(=O)C=C[C@]4(C)[C@@]3(F)[C@@H](O)C[C@]2(C)[C@@]1(O)C(=O)CO [dexamethasone]
- average of the scores of the degree of order of dermis collagen fiber bundle (0.05 ml once a day for consecutive 8 weeks, five mice, score 0 to 3, 2,500 magnification, before application 0.82): 1.71
- degree of amelioration of skin conditions (average score of treated group / average score of ethanol-applied group) (8 weeks, 1.71/0.78): 2.28
- degree of amelioration of skin conditions (score after application / score before application) (8 weeks, 1.71/0.82): 2.09
